# According to PMC10199020 (Nature Communications, 2023):
# “Also recorded” adds a separate entry of the source. Bridge positions count the residues as written; N and C are the ends. Square brackets hold non-standard residues; d marks the D form. Peptide text beside a SMILES is read from it. * marks the point of attachment. 5TAMRA = CN(C)c1ccc2c(c1)Oc1cc(N(C)C)ccc1C21OC(=O)c2cc(C(=O)*)ccc21; 2Nal = N[C@@H](Cc1ccc2ccccc2c1)C(=O)O; Pen = CC(C)(S)[C@H](N)C(=O)O; Aib = CC(C)(N)C(=O)O
# Experiments:
# [1] = target: T1, NL-IL12Rβ1 (Homo sapiens, UniProt P42701); assay: P630-TMR NanoBRET binding assay, NL-IL12Rβ1 alone; settings: for Specific binding BRET ratio (Mean): Fig. 2h, NL-IL12RB1
# T1 construct: expressed in transfected cells; host or cells: HEK293T, transient transfection
# Description: Fig. 2 Creation and characterisation of a fluorescent cyclic peptide probe for IL23R. […] Data are normally mean ± SEM from five independent experiments. Details on absolute number of data points included for each concentration are provided in the associated Source Data file. In each individual saturation experiment triplicate determinations were normally made for total binding and duplicate measurements were made for non-specific binding.
# (§1) Finally, we utilised a NanoBiT BRET system in which a complemented luciferase with fragments bound to both receptor subunits (Fig. 3) can be used as a BRET donor to measure interactions with binary receptor complexes.
# (§2) Media was removed from white 96-well microplates containing transfected cells and replaced with fluoroprobe in the presence or absence of antagonist in 50 μL Hanks Balanced Salt Solution (HBSS) with 1 mg/mL BSA (Merck). After a 1-hour incubation at 37 °C without CO2, 5 μL of HBSS containing 77 μM furimizine was added to each well (final concentration 7 μM), the plate incubated for 5-minutes and the BRET signal measured using a PheraStar FS plate reader (BMG Labtech; data acquisition software version 5.41; MARS analysis software version 3.32) with a 450 ± 30 nm and >550 nm long pass filters.
# Specific binding data was generated by subtracting the BRET values gained in the presence of an excess of unlabelled probe from the BRET ratios gained in the absence of unlabelled probe. Specific binding data were fit using the equation:3 Y=Bmax[B]/(B+KD) where ‘Bmax’ is the maximum specific binding signal of the curve and ‘[B]’ is the concentration of fluorescent probe.
# [2] = target: T2, C115Y mutated IL23R (Homo sapiens, UniProt P42701+Q5VWK5, C115Y); assay: P630-TMR NanoBRET binding assay, C115Y mutant; settings: for Mean NanoBRET binding signal (Figure 7 panel b): NL-IL23R (C115Y) + IL12Rβ1
# T2 construct: expressed in transfected cells; host or cells: HEK293T, transient transfection
# T2 sequence (Q5VWK5 24-629 C115Y, other chains not shown): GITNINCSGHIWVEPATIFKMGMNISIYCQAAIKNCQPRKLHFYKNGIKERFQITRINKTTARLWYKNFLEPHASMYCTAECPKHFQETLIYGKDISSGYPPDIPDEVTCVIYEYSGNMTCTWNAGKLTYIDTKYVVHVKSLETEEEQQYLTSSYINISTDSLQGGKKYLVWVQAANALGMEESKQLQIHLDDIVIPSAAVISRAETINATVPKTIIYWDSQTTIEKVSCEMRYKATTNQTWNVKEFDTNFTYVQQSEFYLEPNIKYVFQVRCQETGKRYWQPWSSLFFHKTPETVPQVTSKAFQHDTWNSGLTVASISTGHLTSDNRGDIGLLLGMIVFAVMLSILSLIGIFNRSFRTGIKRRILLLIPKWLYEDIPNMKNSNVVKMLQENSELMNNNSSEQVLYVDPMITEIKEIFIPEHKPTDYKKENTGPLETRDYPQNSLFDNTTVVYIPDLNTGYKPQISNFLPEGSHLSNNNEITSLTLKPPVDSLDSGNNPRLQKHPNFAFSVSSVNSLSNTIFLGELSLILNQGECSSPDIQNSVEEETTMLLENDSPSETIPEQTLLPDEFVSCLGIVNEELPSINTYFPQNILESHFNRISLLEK
# Description: Data are mean ± SEM from five (C115Y) or four (wildtype) independent experiments conducted in duplicate or triplicate. Details on absolute number of data points included for each concentration are provided in the associated Source Data file.
# as §2, with “filters. P630-TMR binding assays were normalised to a final DMSO concentration of 0.1%.” for “filters.”
# [3] = target: HiBit-IL23R and LgBit-IL12Rβ1 (Homo sapiens, UniProt Q5VWK5); assay: NanoBiT BRET binding assay; design: expressed in transfected cells; host or cells: HEK293T, transient transfection; settings: for BRET ratio, Non-specific (Mean) / BRET ratio, Specific (Mean): Fig. 3b, NanoBiT complemented receptors; for % of P630-TMR specific Bmax (Mean): Fig. 3d, HiBit-IL23R + LgBit-IL12RB1
# Sequence of HiBit-IL23R and LgBit-IL12Rβ1 (Q5VWK5 24-629, other chains not shown): as the sequence (Q5VWK5 24-629 C115Y, other chains not shown) above, with Y92C counted along it
# Description: as §1
# Data in b are mean ± SEM from three independent experiments. In each individual experiment, triplicate determinations were made for total binding and duplicate or triplicate determinations made for non-specific binding. Data in c are the mean values obtained in five independent experiments, each conducted with six replicates. […] Data in d are the mean ± SEM from five (NL-IL23R and NL-23R + IL12Rβ1) or three (HiBit-IL23R + LgBit-IL12Rβ1) independent experiments. Source data are provided as a Source Data file.
# as §2
structure (smiles),measurement,setting,value
COc1ccc(C[C@H](NC(=O)[C@H]2NC(=O)[C@H](CCC(N)=O)NC(=O)[C@H](Cc3c[nH]c4ccccc34)NC(=O)[C@H]([C@@H](C)O)NC(=O)[C@H](CC(N)=O)NC(=O)[C@@H](NC(C)=O)C(C)(C)SSC2(C)C)C(=O)N[C@@H](Cc2ccc3ccccc3c2)C(=O)NC(C)(C)C(=O)N[C@@H](CCC(=O)O)C(=O)N[C@@H](CC(N)=O)C(=O)N[C@@H](CC(N)=O)C(=O)N[C@@H](CCCCNC(=O)c2ccc3c(c2)C(=O)OC32c3ccc(N(C)C)cc3Oc3cc(N(C)C)ccc32)C(N)=O)cc1 [P630-TMR] (Ac-[Pen]NTWQ[Pen]Y(Me)[2Nal][Aib]ENNK(5TAMRA)-NH2; disulfide 1-6),Specific binding BRET ratio (Mean),[1]; P630-TMR 4.11523 nM,0.00137
same,Specific binding BRET ratio (Mean),[1]; P630-TMR 12.3457 nM,0.0001891
same,Specific binding BRET ratio (Mean),[1]; P630-TMR 37.037 nM,0.00136
same,Specific binding BRET ratio (Mean),[1]; P630-TMR 111.111 nM,0.002083
same,Specific binding BRET ratio (Mean),[1]; P630-TMR 1000 nM,0.003104
same,Specific binding BRET ratio (Mean),[1]; P630-TMR 3000 nM,0.002137
same,Binding to cells expressing NL-IL12Rβ1 in isolation,[1]; absence of IL23R,no specific binding; also recorded: Did not bind
same,Binding to C115Y mutant receptor,[2],blocked specific binding
same,Mean NanoBRET binding signal (Figure 7 panel b),[2]; [P630-TMR] 0.8 nM,-0.003437
same,Mean NanoBRET binding signal (Figure 7 panel b),[2]; [P630-TMR] 4 nM,-0.009288
same,Mean NanoBRET binding signal (Figure 7 panel b),[2]; [P630-TMR] 20 nM,-0.006407
same,Mean NanoBRET binding signal (Figure 7 panel b),[2]; [P630-TMR] 100 nM,-0.004647
same,Mean NanoBRET binding signal (Figure 7 panel b),[2]; [P630-TMR] 500 nM,-0.001312
same,Mean NanoBRET binding signal (Figure 7 panel b),[2]; [P630-TMR] 2000 nM,0.003535
same,"BRET ratio, Non-specific (Mean)",[3]; P630-TMR 1.37174 nM,0.09875
same,"BRET ratio, Specific (Mean)",[3]; P630-TMR 1.37174 nM,0.105
same,"BRET ratio, Non-specific (Mean)",[3]; P630-TMR 4.11523 nM,0.09641
same,"BRET ratio, Specific (Mean)",[3]; P630-TMR 4.11523 nM,0.1138
same,"BRET ratio, Non-specific (Mean)",[3]; P630-TMR 12.3457 nM,0.09986
same,"BRET ratio, Specific (Mean)",[3]; P630-TMR 12.3457 nM,0.141
same,"BRET ratio, Non-specific (Mean)",[3]; P630-TMR 37.037 nM,0.1012
same,"BRET ratio, Specific (Mean)",[3]; P630-TMR 37.037 nM,0.1913
same,"BRET ratio, Non-specific (Mean)",[3]; P630-TMR 111.111 nM,0.1006
same,"BRET ratio, Specific (Mean)",[3]; P630-TMR 111.111 nM,0.2562
same,"BRET ratio, Non-specific (Mean)",[3]; P630-TMR 1000 nM,0.1066
same,"BRET ratio, Specific (Mean)",[3]; P630-TMR 1000 nM,0.3269
same,"BRET ratio, Non-specific (Mean)",[3]; P630-TMR 3000 nM,0.1175
same,"BRET ratio, Specific (Mean)",[3]; P630-TMR 3000 nM,0.3365
same,% of P630-TMR specific Bmax (Mean),[3]; P630-TMR 1.37174 nM,2.813%
same,% of P630-TMR specific Bmax (Mean),[3]; P630-TMR 4.11523 nM,8.07%
same,% of P630-TMR specific Bmax (Mean),[3]; P630-TMR 12.3457 nM,19.2912%
same,% of P630-TMR specific Bmax (Mean),[3]; P630-TMR 37.037 nM,41.1077%
same,% of P630-TMR specific Bmax (Mean),[3]; P630-TMR 111.111 nM,71.2465%
same,% of P630-TMR specific Bmax (Mean),[3]; P630-TMR 1000 nM,99.3007%
same,% of P630-TMR specific Bmax (Mean),[3]; P630-TMR 3000 nM,100%
same,Kd,"[3]; HiBit-IL23R and LgBit-IL12Rβ1, mean ± SEM",53.5 ± 4.4 nM
